Biological target: T1, CRTH2 (Homo sapiens, UniProt Q9Y5Y4)
T1 sequence (Q9Y5Y4 1-395): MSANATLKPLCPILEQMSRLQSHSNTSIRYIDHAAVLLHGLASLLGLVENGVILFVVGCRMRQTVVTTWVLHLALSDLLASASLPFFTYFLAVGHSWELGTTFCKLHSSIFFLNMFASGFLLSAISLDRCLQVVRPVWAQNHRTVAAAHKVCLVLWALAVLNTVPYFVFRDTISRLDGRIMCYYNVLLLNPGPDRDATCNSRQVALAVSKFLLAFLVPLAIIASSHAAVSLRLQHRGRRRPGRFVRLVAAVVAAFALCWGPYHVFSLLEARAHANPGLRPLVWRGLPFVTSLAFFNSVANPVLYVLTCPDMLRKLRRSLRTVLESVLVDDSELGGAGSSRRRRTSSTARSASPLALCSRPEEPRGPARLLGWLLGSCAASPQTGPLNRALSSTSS
Experiment: Determination of Ki (radioligand binding assay, equilibrium competition against [3H]PGD2)
Design: expressed in transfected cells; host or cells: HEK293 (EBNA) cells, membrane preparation
Conditions: average of at least three independent dose response experiments
Protocol: The inhibitory activity can be investigated by a radioligand binding assay (Sawyer et al., Br. J. Pharmocol 2002, 137, 1163-72). The radioligand binding assay was performed at room temperature in binding buffer (10 mM HEPES/KOH pH […], with protease inhibitor cocktail tablets), containing 1.5 nM [^3H]PGD2 (Amersham, 156 Cie/mmol), and 10 μg of hCRTH2 HEK293 (EBNA) cell membrane protein in a final volume of 100 μl in 96 well plates (Corning, USA). Non-specific binding was determined in the presence of 1 μM PGD2 (Cayman, USA). Competing spiro-indolinones were diluted in dimethylsulphoxide so that the total volume of dimethylsulfoxide was kept constant at 1% dimethylsulphoxide (Me2SO) Serial dilutions of 100 μM and […] were prepared. 10 μl each of these spiro-indolinone stock solutions were added. Incubation (60 min at room temperature) was terminated by rapid filtration through 96 wells hydrophobic GF/C Unifilter plates (Whatman, USA). Filters were washed twice with 250 μl of Tris-HCl pH 7.4, 10 mM MnCl2, and residual radioligand bound to the filters was mixed to 100 μl of liquid scintillation cocktail (Optiphase Supermix, Perkin Elmer, USA) and binding activity was determined by counting residual radioligand using a 1450 Micro-beta scintillation counter (Wallac, UK). The following representative compounds were tested. All inhibited the binding of PGD2 to CRTH2 by more than 70%. • (1′-benzyl-5-chloro-2,2′,5′-trioxospiro[indole-3,3′-pyrrolidin]-1(2H)-yl)acetic acid • (1′-benzyl-5-fluoro-2,2′,5′-trioxospiro[indole-3,3′-pyrrolidin]-1(2H)-yl)acetic acid • 4-(1′-allyl-5-chloro-2,2′,5′-trioxospiro[indole-3,3′-pyrrolidin]-1(2H)-yl)butanoic acid • [5-chloro-1′-(2-methoxyethyl)-2,2′,5′-trioxospiro[indole-3,3′-pyrrolidin]-1(2H)-yl]acetic acid • 4-(1′-benzyl-5-chloro-2,2′,5′-trioxospiro[indole-3,3′-pyrrolidin]-1(2H)-yl)butanoic acid • (1′-benzyl-5-methoxy-2,2′,5′-trioxospiro[indole-3,3′-pyrrolidin]-1(2H)-yl)acetic acid • [5-fluoro-1′-[(2-methoxyethoxy)methyl]-2,2′,5′-trioxospiro[indole-3,3′-pyrrolidin]-1(2H)-yl]acetic acid • 4-(1′-allyl-5-fluoro-2,2′,5′-trioxospiro[indole-3,3′-pyrrolidin]-1(2H)-yl)butanoic acid • 4-(1′-benzyl-5-fluoro-2,2′,5′-trioxospiro[indole-3,3′-pyrrolidin]-1(2H)-yl)butanoic acid
Ki values were determined by equilibrium competition binding experiments against [^3H]PGD2. Ki values were calculated from the formula below and represent the average of at least three independent dose response experiments. The Ki values give the ligand concentrations necessary to inhibit 50% of the binding of [^3H]PGD2 to CRTH2. Ki=IC50/(1+[Concentration of Ligand]/Kd)]
All experiments were performed in 96 well plates, in a final volume of 100 μl according to the above described filtration assay. The concentration of membranes and 3 [H]PGD2, as well as the positive and negative controls were identical to the conditions described above.

| Structure (SMILES) | Ki [nM] |
| --- | --- |
| Cc1nc(CN2C(=O)CC3(C2=O)C(=O)N(CC(=O)O)c2ccc(Cl)cc23)cs1 (stereo not shown) [Compound 1, [5-chloro-1′-[(2-methyl-1,3-thiazol-4-yl)methyl]-2,2′,5′-trioxospiro[indole-3,3′-pyrrolidin]-1(2H)-yl]acetic acid] | 39 |
| O=C(O)CN1C(=O)C2(CC(=O)N(Cc3ccc4ccccc4n3)C2=O)c2cc(Cl)ccc21 (stereo not shown) [Compound 3, [5-chloro-2,2′,5′-trioxo-1′-(quinolin-2-ylmethyl)spiro[indole-3,3′-pyrrolidin]-1(2H)-yl]acetic acid] | 93 |
| N#Cc1ccc(CN2C(=O)CC3(C2=O)C(=O)N(CC(=O)O)c2ccc(Cl)cc23)cc1 (stereo not shown) [Compound 4, [5-chloro-1′-(4-cyanobenzyl)-2,2′,5′-trioxospiro[indole-3,3′-pyrrolidin]-1(2H)-yl]acetic acid] | 89 |
| O=C(O)CN1C(=O)C2(CC(=O)N(Cc3cccc(Cl)c3)C2=O)c2cc(Cl)ccc21 (stereo not shown) [Compound 5, [5-chloro-1′-(3-chlorobenzyl)-2,2′,5′-trioxospiro[indole-3,3′-pyrrolidin]-1(2H)-yl]acetic acid] | 73 |
| O=C(O)CN1C(=O)C2(CC(=O)N(Cc3ccc(Cl)c(Cl)c3)C2=O)c2cc(Cl)ccc21 (stereo not shown) [Compound 6, [5-chloro-1′-(3,4-dichlorobenzyl)-2,2′,5′-trioxospiro[indole-3,3′-pyrrolidin]-1(2H)-yl]acetic acid] | 100 |
| O=C(O)CN1C(=O)C2(CC(=O)N(Cc3cccc(Oc4ccccc4)c3)C2=O)c2cc(Cl)ccc21 (stereo not shown) [Compound 10, [5-chloro-2,2′,5′-trioxo-1′-(3-phenoxybenzyl)spiro[indole-3,3′-pyrrolidin]-1(2H)-yl]acetic acid] | 148 |
| O=C(O)CN1C(=O)C2(CC(=O)N(CC3COc4ccccc4O3)C2=O)c2cc(Cl)ccc21 (stereo not shown) [Compound 16, [5-chloro-1′-(2,3-dihydro-1,4-benzodioxin-2-ylmethyl)-2,2′,5′-trioxospiro[indole-3,3′-pyrrolidin]-1(2H)-yl]acetic acid] | 213 |
| O=C(O)CN1C(=O)C2(CC(=O)N(Cc3ccccn3)C2=O)c2cc(Cl)ccc21 (stereo not shown) [Compound 17, [5-chloro-2,2′,5′-trioxo-1′-(pyridin-2-ylmethyl)spiro[indole-3,3′-pyrrolidin]-1(2H)-yl]acetic acid] | 170 |
| O=C(O)CN1C(=O)C2(CC(=O)N(Cc3ccc(C(F)(F)F)o3)C2=O)c2cc(Cl)ccc21 (stereo not shown) [Compound 18, [5-chloro-2,2′,5′-trioxo-1′-{[5-(trifluoromethyl)-2-furyl]methyl}spiro[indole-3,3′-pyrrolidin]-1(2H)-yl]acetic acid] | 270 |
| O=C(O)CN1C(=O)C2(CC(=O)N(CCc3ccccc3)C2=O)c2cc(Cl)ccc21 (stereo not shown) [Compound 23, [5-chloro-2,2′,5′-trioxo-1′-(2-phenylethyl)spiro[indole-3,3′-pyrrolidin]-1(2H)-yl]acetic acid] | 267 |
| O=C(O)CN1C(=O)C2(CC(=O)N(Cc3cn4ccccc4n3)C2=O)c2cc(Cl)ccc21 (stereo not shown) [Compound 24, [5-chloro-1′-(imidazo[1,2-a]pyridin-2-ylmethyl)-2,2′,5′-trioxospiro[indole-3,3′-pyrrolidin]-1(2H)-yl]acetic acid] | 705 |
| O=C(O)CN1C(=O)C2(CC(=O)N(C/C=C/c3ccccc3)C2=O)c2cc(Cl)ccc21 (stereo not shown) [Compound 25, [5-chloro-2,2′,5′-trioxo-1′-[(2E)-3-phenylprop-2-en-1-yl]spiro[indole-3,3′-pyrrolidin]-1(2H)-yl]acetic acid] | 768 |
| CCOCCN1C(=O)CC2(C1=O)C(=O)N(CC(=O)O)c1ccc(Cl)cc12 (stereo not shown) [Compound 28, [5-chloro-1′-(2-ethoxyethyl)-2,2′,5′-trioxospiro[indole-3,3′-pyrrolidin]-1(2H)-yl]acetic acid] | 1030 |
| O=C(O)CN1C(=O)C2(CC(=O)N(CCOCc3ccccc3)C2=O)c2cc(Cl)ccc21 (stereo not shown) [Compound 29, [1′-[2-(benzyloxy)ethyl]-5-chloro-2,2′,5′-trioxospiro[indole-3,3′-pyrrolidin]-1(2H)-yl]acetic acid] | 1130 |
| Cn1ccnc1CN1C(=O)CC2(C1=O)C(=O)N(CC(=O)O)c1ccc(Cl)cc12 (stereo not shown) [Compound 32, [5-chloro-1′-[(1-methyl-1H-imidazol-2-yl)methyl]-2,2′,5′-trioxospiro[indole-3,3′-pyrrolidin]-1(2H)-yl]acetic acid] | 1820 |
| O=C(O)CCCN1C(=O)C2(CC(=O)N(Cc3ccc(C(F)(F)F)cc3)C2=O)c2cc(Cl)ccc21 (stereo not shown) [Compound 35, 4-[5-chloro-2,2′,5′-trioxo-1′-[4-(trifluoromethyl)benzyl]spiro[indole-3,3′-pyrrolidin]-1(2H)-yl]butanoic acid] | 681 |
| COc1ccccc1CN1C(=O)CC2(C1=O)C(=O)N(CC(=O)O)c1ccc(Cl)cc12 (stereo not shown) [Compound 54, [5-chloro-1′-(2-methoxybenzyl)-2,2′,5′-trioxospiro[indole-3,3′-pyrrolidin]-1(2H)-yl]acetic acid] | 153 |
| COc1c(C)cnc(CN2C(=O)CC3(C2=O)C(=O)N(CC(=O)O)c2ccc(Cl)cc23)c1C (stereo not shown) [Compound 75, [5-chloro-1′-[(4-methoxy-3,5-dimethylpyridin-2-yl)methyl]-2,2′,5′-trioxospiro[indole-3,3′-pyrrolidin]-1(2H)-yl]acetic acid] | 510 |
| O=C(O)CN1C(=O)C2(CC(=O)N(Cc3cnc(Cl)cc3Cl)C2=O)c2cc(Cl)ccc21 (stereo not shown) [Compound 76, [5-chloro-1′-[(4,6-dichloropyridin-3-yl)methyl]-2,2′,5′-trioxospiro[indole-3,3′-pyrrolidin]-1(2H)-yl]acetic acid] | 12 |
| O=C(O)CN1C(=O)C2(CC(=O)N(Cc3cccs3)C2=O)c2cc(Cl)ccc21 (stereo not shown) [Compound 77, [5-chloro-2,2′,5′-trioxo-1′-(2-thienylmethyl)spiro[indole-3,3′-pyrrolidin]-1(2H)-yl]acetic acid] | 75 |
| COc1ccnc(CN2C(=O)CC3(C2=O)C(=O)N(CC(=O)O)c2ccc(Cl)cc23)c1OC (stereo not shown) [Compound 78, [5-chloro-1′-[(3,4-dimethoxypyridin-2-yl)methyl]-2,2′,5′-trioxospiro[indole-3,3′-pyrrolidin]-1(2H)-yl]acetic acid] | 101 |
| O=C(O)CN1C(=O)C2(CC(=O)N(Cc3csc(-c4cccc(Cl)c4)n3)C2=O)c2cc(Cl)ccc21 (stereo not shown) [Compound 103, [5-chloro-1′-{[2-(3-chlorophenyl)-1,3-thiazol-4-yl]methyl}-2,2′,5′-trioxospiro[indole-3,3′-pyrrolidin]-1(2H)-yl]acetic acid] | 6 |
| O=C(O)CN1C(=O)C2(CC(=O)N(Cc3ccccc3F)C2=O)c2cc(Cl)ccc21 (stereo not shown) [Compound 104, [5-chloro-1′-(2-fluorobenzyl)-2,2′,5′-trioxospiro[indole-3,3′-pyrrolidin]-1(2H)-yl]acetic acid] | 24 |
| Cc1onc(-c2ccccc2)c1CN1C(=O)NC2(C1=O)C(=O)N(CC(=O)O)c1ccc(Cl)cc12 (stereo not shown) [Compound 106, [5′-chloro-1-[(5-methyl-3-phenylisoxazol-4-yl)methyl]-2,2′,5-trioxospiro[imidazolidine-4,3′-indol]-1′(2′H)-yl]acetic acid] | 1120 |
| O=C(O)CN1C(=O)C2(NC(=O)N(Cc3ccccc3)C2=O)c2cc(Cl)ccc21 (stereo not shown) [Compound 107, (1-benzyl-5′-chloro-2,2′,5-trioxospiro[imidazolidine-4,3′-indol]-1′(2′H)-yl)acetic acid] | 300 |

— patent US8236963B2, “Tricyclic spiro derivatives as CRTH2 modulators” (Merck Serono SA, priority 2005, dated 2012)
